Data from PMC6270727, “Anticholinesterase Inhibitory Activity of Quaternary Alkaloids from Tinospora crispa” (Molecules, 2014).
Where two headings read alike, the source gives them in different places.

Biological target: T1, acetylcholinesterase (AChE) from electric eels (type V-S) (Electrophorus electricus, UniProt O42275)
T1 construct: purchased Sigma-Aldrich (St. Louis, MO, USA) type V-S (catalogue number not given)
Experiment: Acetylcholinesterase (AChE) inhibitory assay, modified Ellman's colorimetric method, 96-well microplate
Format: biochemical
Details: for AChE inhibitory activity in words: microplate assay

[1] = mean ± standard deviation of two independent experiments, Tris-HCl pH 8, absorbance at 405 nm, read-out: Acetylcholinesterase inhibitory activity IC50

T1 sequence (O42275 24-633): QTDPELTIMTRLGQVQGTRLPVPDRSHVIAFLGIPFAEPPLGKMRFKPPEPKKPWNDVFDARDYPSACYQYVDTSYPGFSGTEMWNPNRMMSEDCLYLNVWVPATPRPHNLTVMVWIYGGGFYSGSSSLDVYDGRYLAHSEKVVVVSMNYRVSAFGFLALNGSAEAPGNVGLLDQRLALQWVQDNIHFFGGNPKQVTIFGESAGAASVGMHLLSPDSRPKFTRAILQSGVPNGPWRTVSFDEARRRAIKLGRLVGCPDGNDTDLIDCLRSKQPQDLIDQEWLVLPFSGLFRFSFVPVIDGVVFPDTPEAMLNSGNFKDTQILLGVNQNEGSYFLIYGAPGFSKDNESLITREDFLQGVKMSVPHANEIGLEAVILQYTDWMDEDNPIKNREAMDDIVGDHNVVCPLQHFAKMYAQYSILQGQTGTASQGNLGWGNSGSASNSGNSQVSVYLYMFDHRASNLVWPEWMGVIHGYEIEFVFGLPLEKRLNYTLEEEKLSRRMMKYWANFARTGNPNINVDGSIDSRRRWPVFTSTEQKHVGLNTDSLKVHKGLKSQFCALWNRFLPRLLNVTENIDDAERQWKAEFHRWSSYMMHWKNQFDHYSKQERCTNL

Row | SMILES | AChE inhibitory activity in words | IC50 | IC50 [1]
1 | COc1cc(/C=C/C(=O)NCCc2ccc(O)cc2)ccc1O [Compound 7, N-trans-feruloyltyramine] | very weak or no inhibitory activity |  | 
2 | COc1cc2c(cc1O)-c1cc3ccc(OC)c(OC)c3c[n+]1CC2 [Compound 3, columbamine] | most active compound | 48.1 ± 1.3 µM | 
3 | COc1ccc2c(c1O)-c1c(O)c(OC)cc3c1[C@H](C2)[N+](C)(C)CC3 [Compound 4, magnoflorine] | very weak or no inhibitory activity |  | 
4 | COc1cc2c3c(c1OC)-c1ccccc1CC3N(C=O)CC2 (stereo not shown) [Compound 6, N-formylnornuciferine] | very weak or no inhibitory activity |  | 564.6 ± 2.1 µM
5 | O=CN1CCc2cc3c(c4c2C1Cc1ccccc1-4)OCO3 (stereo not shown) [Compound 5, N-formylannonaine] |  |  | 415.3 ± 2.7 µM
